Source: patent publication US10815276B2, “Cell penetrating peptides and methods of making and using thereof” (Entrada Therapeutics, Inc., priority 2014, dated 2020)
Like-named read-outs stand apart in the source and are kept apart here. Non-standard residues stand in square brackets, D forms with d. Residues, ends and D or L forms follow the SMILES beside them. *: point of attachment. Lys(5-FITC)NH2 = NC(=O)[C@H](CCCCNC(=S)Nc1ccc2c(c1)C(=O)OC21c2ccc(O)cc2Oc2cc(O)ccc21)N*; 2Nal = N[C@@H](Cc1ccc2ccccc2c1)C(=O)O; d2Nal = N[C@H](Cc1ccc2ccccc2c1)C(=O)O

Key:
[1] = system: SUV1 (vesicles that mimic the neutral outer membrane of mammalian cells); test: Fluorescence polarization membrane binding, SUV1
Excerpt: (§1) Also discussed herein are the CPP sequences in Table 16. All uptake/delivery efficiencies are in Table 17 are relative to that of cFΦR4 (290-1F, 100%). SUV1 are small unilamellar vesicles that mimic the neutral outer membrane of mammalian cells [45% phosphatidylcholine (PC), 20% phosphatidylethanolamine (PE), 20% sphingomyelin (SM), and 15% cholesterol (CHO)]. SUV2 are small unilamellar vesicles that mimic the negatively charged endosomal membrane of mammalian cells [50% PC, 20% PE, 10% phosphatidylinositol (PI), and 20% bis(monoacylglycerol)phosphate].
(§2) Measurements were carried out fluorescence polarization using FITC-labeled cyclic peptides against increasing concentrations of vesicles. Experiments were performed at pH 7.4 and 5.5 (pH inside late endosomes).

[2] = system: cell type (e.g., HeLa cells); test: Cellular uptake efficiency of cyclic CPPs; format: cell-based; details: relative to cFΦR4 (290-1F, 100%)
Procedure: In particular embodiments, uptake efficiency is determined by comparing (i) the amount of a cyclic cell-penetrating peptide of the invention internalized by a cell type (e.g., HeLa cells) to (ii) the amount of c(FΦRRRRQ) (290-1F) internalized by the same cell type. To measure cellular uptake efficiency, the cell type may be incubated in the presence of a cell-penetrating peptide of the invention for a specified period of time (e.g., 30 minutes, 1 hour, 2 hours, etc.) after which the amount of the cell-penetrating peptide internalized by the cell is quantified. Separately, the same concentration of c(FΦRRRRQ) (290-1F) is incubated in the presence of the cell type over the same period of time, and the amount of the second peptide internalized by the cell is quantified. Quantification can be achieved by fluorescently labeling the cell-penetrating peptide (e.g., with a FTIC dye) and measuring the fluorescence intensity using techniques well-known in the art.
as §1

[3] = system: SUV2 (vesicles that mimic the negatively charged endosomal membrane of mammalian cells); test: Fluorescence polarization membrane binding, SUV2
Excerpt: as §1, §2

[4] = pH 7.4, read-out: Membrane Binding KD (mM) SUV1 pH 7.4
[5] = pH 5.5, read-out: Membrane Binding KD (mM) SUV2 pH 5.5
[6] = pH 7.4, read-out: Membrane Binding KD (mM) SUV2 pH 7.4

## N=C(N)NCCC[C@@H]1NC(=O)[C@H](CCCNC(=N)N)NC(=O)[C@H](CCCNC(=N)N)NC(=O)[C@H](Cc2ccccc2)NC(=O)[C@H](CCC(=O)N[C@@H](CCCCNC(=S)Nc2ccc3c(c2)C(=O)OC32c3ccc(O)cc3Oc3cc(O)ccc32)C(N)=O)NC(=O)[C@H](Cc2ccc3ccccc3c2)NC(=O)[C@H](CCCNC(=N)N)NC1=O [Peptide 290-4F, c(FRRRRΦQ)] (cyclo(FRRRR[2Nal]E(Lys(5-FITC)NH2)))
[1]; [4]
  Kd: 7.24 mM
[2]
  Uptake Efficiency (%): 59%
[3]; [5]
  Kd: 0.11 mM
[3]; [6]
  Kd: 0.54 mM

## N=C(N)NCCC[C@@H]1NC(=O)[C@H](CCCNC(=N)N)NC(=O)[C@H](CCCNC(=N)N)NC(=O)[C@H](Cc2ccc3ccccc3c2)NC(=O)[C@H](Cc2ccccc2)NC(=O)[C@H](CCC(=O)N[C@@H](CCCCNC(=S)Nc2ccc3c(c2)C(=O)OC32c3ccc(O)cc3Oc3cc(O)ccc32)C(N)=O)NC1=O [Peptide 290-5F, c(FΦRRRQ)] (cyclo(F[2Nal]RRRE(Lys(5-FITC)NH2)))
[1]; [4]
  Kd: 10.1 mM
[2]
  Uptake Efficiency (%): 97%
[3]; [5]
  Kd: 0.066 mM
[3]; [6]
  Kd: 2.4 mM

## N=C(N)NCCC[C@@H]1NC(=O)[C@H](CCCNC(=N)N)NC(=O)[C@H](CCCNC(=N)N)NC(=O)[C@H](CCCNC(=N)N)NC(=O)[C@H](Cc2ccc3ccccc3c2)NC(=O)[C@H](Cc2ccccc2)NC(=O)[C@H](CCC(=O)N[C@@H](CCCCNC(=S)Nc2ccc3c(c2)C(=O)OC32c3ccc(O)cc3Oc3cc(O)ccc32)C(N)=O)NC(=O)[C@H](CCCNC(=N)N)NC1=O [Peptide 290-6F] (cyclo([2Nal]RRRRRE(Lys(5-FITC)NH2)F))
[1]; [4]
  Kd: 2.2 mM
[2]
  Uptake Efficiency (%): 184%
[3]; [5]
  Kd: 0.019 mM
[3]; [6]
  Kd: 0.12 mM

## N=C(N)NCCC[C@@H]1NC(=O)[C@H](CCCNC(=N)N)NC(=O)[C@H](CCCNC(=N)N)NC(=O)[C@H](Cc2ccc3ccccc3c2)NC(=O)[C@H](Cc2ccccc2)NC(=O)[C@H](Cc2ccccc2)NC(=O)[C@H](CCC(=O)N[C@@H](CCCCNC(=S)Nc2ccc3c(c2)C(=O)OC32c3ccc(O)cc3Oc3cc(O)ccc32)C(N)=O)NC(=O)[C@H](CCCNC(=N)N)NC1=O [Peptide 290-7F] (cyclo(FF[2Nal]RRRRE(Lys(5-FITC)NH2)))
[1]; [4]
  Kd: 1.65 mM
[2]
  Uptake Efficiency (%): 134%
[3]; [5]
  Kd: 0.007 mM
[3]; [6]
  Kd: 0.11 mM

## N=C(N)NCCC[C@@H]1NC(=O)[C@H](CCC(=O)N[C@@H](CCCCNC(=S)Nc2ccc3c(c2)C(=O)OC32c3ccc(O)cc3Oc3cc(O)ccc32)C(N)=O)NC(=O)[C@H](CCCNC(=N)N)NC(=O)[C@H](Cc2ccc3ccccc3c2)NC(=O)[C@H](CCCNC(=N)N)NC(=O)[C@H](Cc2ccccc2)NC(=O)[C@H](CCCNC(=N)N)NC(=O)[C@H](Cc2ccccc2)NC1=O [Peptide 290-8F] (cyclo(RFRFR[2Nal]RE(Lys(5-FITC)NH2)))
[1]; [4]
  Kd: 0.4 mM
[2]
  Uptake Efficiency (%): 98%
[3]; [5]
  Kd: 0.082 mM
[3]; [6]
  Kd: 0.39 mM

## N=C(N)NCCC[C@@H]1NC(=O)[C@H](Cc2ccc3ccccc3c2)NC(=O)[C@@H](Cc2ccccc2)NC(=O)[C@H](CCC(=O)N[C@@H](CCCCNC(=S)Nc2ccc3c(c2)C(=O)OC32c3ccc(O)cc3Oc3cc(O)ccc32)C(N)=O)NC(=O)[C@@H](CCCNC(=N)N)NC(=O)[C@H](CCCNC(=N)N)NC(=O)[C@@H](CCCNC(=N)N)NC1=O [Peptide 290-9F, c(fΦRrRrQ)] (cyclo([dF][2Nal]R[dR]R[dR]E(Lys(5-FITC)NH2)))
[1]; pH 5.5, read-out: Membrane Binding KD (mM) SUV1 pH 5.5
  Kd: 0.81 mM
[1]; [4]
  Kd: 1.2 mM
[2]
  Uptake Efficiency (%): 602%
[3]; [5]
  Kd: 0.012 mM
[3]; [6]
  Kd: 0.033 mM

## N=C(N)NCCC[C@@H]1NC(=O)[C@H](Cc2ccccc2)NC(=O)[C@H](CCCNC(=N)N)NC(=O)[C@@H](CCCNC(=N)N)NC(=O)[C@H](CCC(=O)N[C@@H](CCCCNC(=S)Nc2ccc3c(c2)C(=O)OC32c3ccc(O)cc3Oc3cc(O)ccc32)C(N)=O)NC(=O)[C@H](CCCNC(=N)N)NC(=O)[C@H](Cc2ccc3ccccc3c2)NC1=O [Peptide 290-10F, c(rRFRΦRQ)] (cyclo([dR]RFR[2Nal]RE(Lys(5-FITC)NH2)))
[1]; [4]
  Kd: 1.2 mM
[2]
  Uptake Efficiency (%): 52%
[3]; [5]
  Kd: 0.17 mM
[3]; [6]
  Kd: 0.87 mM

## N=C(N)NCCC[C@@H]1NC(=O)[C@H](Cc2ccc3ccccc3c2)NC(=O)[C@@H](Cc2ccccc2)NC(=O)[C@H](CCC(=O)N[C@@H](CCCCNC(=S)Nc2ccc3c(c2)C(=O)OC32c3ccc(O)cc3Oc3cc(O)ccc32)C(N)=O)NC(=O)[C@H](CCCNC(=N)N)NC(=O)[C@@H](CCCNC(=N)N)NC(=O)[C@H](CCCNC(=N)N)NC(=O)[C@@H](CCCNC(=N)N)NC1=O [Peptide 290-11F, c(fΦRrRrRQ)] (cyclo([2Nal]R[dR]R[dR]RE(Lys(5-FITC)NH2)[dF]))
[1]; [4]
  Kd: 2.7 mM
[2]
  Uptake Efficiency (%): 542%
[3]; [5]
  Kd: 0.019 mM
[3]; [6]
  Kd: 0.092 mM

## N=C(N)NCCC[C@@H]1NC(=O)[C@H](Cc2ccc3ccccc3c2)NC(=O)[C@@H](Cc2ccccc2)NC(=O)[C@H](Cc2ccccc2)NC(=O)[C@H](CCC(=O)N[C@@H](CCCCNC(=S)Nc2ccc3c(c2)C(=O)OC32c3ccc(O)cc3Oc3cc(O)ccc32)C(N)=O)NC(=O)[C@@H](CCCNC(=N)N)NC(=O)[C@H](CCCNC(=N)N)NC(=O)[C@@H](CCCNC(=N)N)NC1=O [Peptide 290-12F, c(FfΦRrRrQ)] (cyclo(F[dF][2Nal]R[dR]R[dR]E(Lys(5-FITC)NH2)))
[1]; [4]
  Kd: 0.8 mM
[2]
  Uptake Efficiency (%): 681%
[3]; [5]
  Kd: 0.004 mM
[3]; [6]
  Kd: 0.026 mM

## N=C(N)NCCC[C@@H]1NC(=O)[C@@H](CCCNC(=N)N)NC(=O)[C@H](CCCNC(=N)N)NC(=O)[C@@H](CCCNC(=N)N)NC(=O)[C@@H](Cc2ccc3ccccc3c2)NC(=O)[C@H](Cc2ccccc2)NC(=O)[C@H](CCC(=O)N[C@@H](CCCCNC(=S)Nc2ccc3c(c2)C(=O)OC32c3ccc(O)cc3Oc3cc(O)ccc32)C(N)=O)NC1=O [Peptide 290-13F, c(FϕrRrRQ)] (cyclo(F[d2Nal][dR]R[dR]RE(Lys(5-FITC)NH2)))
[1]; [4]
  Kd: 0.68 mM
[2]
  Uptake Efficiency (%): 200%
[3]; [5]
  Kd: 0.04 mM
[3]; [6]
  Kd: 0.28 mM

## N=C(N)NCCC[C@@H]1NC(=O)[C@@H](CCCNC(=N)N)NC(=O)[C@H](CCCNC(=N)N)NC(=O)[C@@H](CCCNC(=N)N)NC(=O)[C@@H](Cc2ccc3ccccc3c2)NC(=O)[C@H](Cc2ccccc2)NC(=O)[C@@H](CCC(=O)N[C@@H](CCCCNC(=S)Nc2ccc3c(c2)C(=O)OC32c3ccc(O)cc3Oc3cc(O)ccc32)C(N)=O)NC1=O [Peptide 290-18F, c(FϕrRrRq)] (cyclo(F[d2Nal][dR]R[dR]R[dE](Lys(5-FITC)NH2)))
[1]; [4]
  Kd: 0.75 mM
[2]
  Uptake Efficiency (%): 205%
[3]; [5]
  Kd: 0.022 mM
[3]; [6]
  Kd: 0.04 mM
